Literature values as cited in patent US8357679B2, “Hexafluoroisopropanol derivatives” (MSD Oss B.V., priority 2008, dated 2013).

Experiments:
[1] = system: tumours; conditions: animal model of prostate cancer
[2] = in vivo
[3] = system: vascular smooth muscle cell; conditions: in vitro
[4] = in vivo; remark: listed apart in the source

O=S(=O)(c1ccccc1)N(CC(F)(F)F)c1ccc(C(O)(C(F)(F)F)C(F)(F)F)cc1 [Example T0901317, T0901317]
progression of tumours [1]: delayed progression of tumours
neointima formation following balloon injury [2]: inhibit
vascular smooth muscle cell proliferation [3]: inhibit
deposition of β-amyloid [4]: lower deposition of β-amyloid
memory [4]: improve memory
